Among the data in patent publication US7951829B2, “Benzimidazole modulators of VR1” (Janssen Pharmaceutica NV, priority 2006, dated 2011) are IC50 and inhibition values, retold here.

Molecules are shown by their SMILES. pIC50: −log10 of the molar value.

The target in this assay is T1, hVR1 (Homo sapiens, UniProt Q8NER1).
T1 construct: expressed in transfected cells; host or cells: HEK293
The experiment in a line: Human VR1 (hVR1) Functional Assay (FLIPR intracellular calcium, capsaicin challenge). The class given is cell-based. The note with it: capsaicin 0.030 μM, HEK293 cells expressing hVR1; for inhibition at 1 µM: test concentration 1 μM.

T1 sequence (Q8NER1 whole entry): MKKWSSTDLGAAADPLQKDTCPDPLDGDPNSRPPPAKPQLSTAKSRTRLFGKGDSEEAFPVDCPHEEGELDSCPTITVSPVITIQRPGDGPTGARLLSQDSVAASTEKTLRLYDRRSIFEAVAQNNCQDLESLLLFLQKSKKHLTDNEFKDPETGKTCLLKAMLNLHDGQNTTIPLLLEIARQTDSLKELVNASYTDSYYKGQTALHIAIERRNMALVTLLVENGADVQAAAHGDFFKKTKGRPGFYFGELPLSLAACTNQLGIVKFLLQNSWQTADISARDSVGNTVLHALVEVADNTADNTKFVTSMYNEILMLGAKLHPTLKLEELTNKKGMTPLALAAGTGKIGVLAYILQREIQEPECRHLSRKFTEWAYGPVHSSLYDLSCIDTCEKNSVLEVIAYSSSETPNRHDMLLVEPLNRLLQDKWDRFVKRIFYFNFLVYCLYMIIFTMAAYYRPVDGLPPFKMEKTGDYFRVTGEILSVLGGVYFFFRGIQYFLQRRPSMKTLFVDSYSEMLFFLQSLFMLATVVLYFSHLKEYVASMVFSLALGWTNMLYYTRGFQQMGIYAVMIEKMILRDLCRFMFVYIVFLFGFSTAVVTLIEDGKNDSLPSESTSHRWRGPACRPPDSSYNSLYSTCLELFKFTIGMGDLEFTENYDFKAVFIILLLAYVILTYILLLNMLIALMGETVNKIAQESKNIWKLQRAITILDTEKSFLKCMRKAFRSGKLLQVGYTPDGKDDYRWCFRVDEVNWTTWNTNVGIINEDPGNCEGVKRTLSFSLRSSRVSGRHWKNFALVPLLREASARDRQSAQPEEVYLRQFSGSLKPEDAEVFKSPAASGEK

As to `NS(=O)(=O)c1ccccc1-c1ccc2[nH]c(CCc3ccc(F)c(C(F)(F)F)c3)nc2c1` [Cpd 383, 2-{2-[2-(4-fluoro-3-trifluoromethyl-phenyl)-ethyl]-1H-benzimidazol-5-yl}-benzenesulfonamide], the pIC50 is 7.96 and the inhibition at 1 µM amounted to 96%.
In the case of `NS(=O)(=O)c1ccccc1-c1ccc2[nH]c(CCc3ccc(F)c(F)c3F)nc2c1` [Cpd 384, 2-{2-[2-(2,3,4-trifluoro-phenyl)-ethyl]-1H-benzimidazol-5-yl}-benzenesulfonamide], the negative logarithm of the IC50 (pIC50) is 8.15 and the inhibition at 1 µM was found to be 98%.
As for `NS(=O)(=O)c1ccccc1-c1ccc2[nH]c(CCc3cc(F)c(F)cc3F)nc2c1` [Cpd 385, 2-{2-[2-(2,4,5-trifluoro-phenyl)-ethyl]-1H-benzimidazol-5-yl}-benzenesulfonamide], the pIC50 was 7.68 and the inhibition at 1 µM was 97%.
Turning to `NS(=O)(=O)c1ccccc1-c1ccc2[nH]c(CCc3c(F)cccc3F)nc2c1` [Cpd 386, 2-{2-[2-(2,6-difluoro-phenyl)-ethyl]-1H-benzimidazol-5-yl}-benzenesulfonamide], the pIC50 was 7.37 and the inhibition at 1 µM amounted to 96%.
As for `NS(=O)(=O)c1ccccc1-c1ccc2[nH]c(CCc3cc(C(F)(F)F)cc(C(F)(F)F)c3)nc2c1` [Cpd 387, 2-{2-[2-(3,5-bis-trifluoromethyl-phenyl)-ethyl]-1H-benzimidazol-5-yl}-benzenesulfonamide], the pIC50 was 7.39 and the inhibition at 1 µM is 98%.
Consider `NS(=O)(=O)c1ccccc1-c1ccc2[nH]c(CCc3cc(C(F)(F)F)ccc3C(F)(F)F)nc2c1` [Cpd 388, 2-{2-[2-(2,5-bis-trifluoromethyl-phenyl)-ethyl]-1H-benzimidazol-5-yl}-benzenesulfonamide], for which the pIC50 was 7.27 and the inhibition at 1 µM was determined as 99%.
With `CS(=O)(=O)c1cc(Cl)ccc1CCc1nc2cc(-c3ccccc3S(N)(=O)=O)ccc2[nH]1` [Cpd 389, 2-{2-[2-(4-chloro-2-methanesulfonyl-phenyl)-ethyl]-1H-benzimidazol-5-yl}-benzenesulfonamide], the inhibition at 1 µM was found to be 23%.
For `NS(=O)(=O)c1ccccc1-c1ccc2[nH]c(CCc3ccc(Cl)c(C(F)(F)F)c3)nc2c1` [Cpd 390, 2-{2-[2-(4-chloro-3-trifluoromethyl-phenyl)-ethyl]-1H-benzimidazol-5-yl}-benzenesulfonamide], the pIC50 is 8.15 and the inhibition at 1 µM worked out at 96%.
Take `NS(=O)(=O)c1ccccc1-c1ccc2[nH]c(CCc3cccc(OC(F)(F)F)c3)nc2c1` [Cpd 391, 2-{2-[2-(3-trifluoromethoxy-phenyl)-ethyl]-1H-benzimidazol-5-yl}-benzenesulfonamide]: the pIC50 is 8.10 and the inhibition at 1 µM was found to be 95%.
The like results for `NS(=O)(=O)c1ccccc1-c1ccc2[nH]c(CCc3ccc(F)cc3F)nc2c1` [Cpd 392, 2-{2-[2-(2,4-difluoro-phenyl)-ethyl]-1H-benzimidazol-5-yl}-benzenesulfonamide] were, in that order, 8.00 and 97%.
The like results for `NS(=O)(=O)c1ccccc1-c1ccc2[nH]c(CCc3ccc(F)c(F)c3)nc2c1` [Cpd 393, 2-{2-[2-(3,4-difluoro-phenyl)-ethyl]-1H-benzimidazol-5-yl}-benzenesulfonamide] were, in that order, 8.00 and 98%.
The like results for `NS(=O)(=O)c1ccccc1-c1ccc2[nH]c(CCc3cccc(F)c3F)nc2c1` [Cpd 394, 2-{2-[2-(2,3-difluoro-phenyl)-ethyl]-1H-benzimidazol-5-yl}-benzenesulfonamide] were, in that order, 8.22 and 98%.
Regarding `NS(=O)(=O)c1ccccc1-c1ccc2[nH]c(CCc3cc(F)ccc3F)nc2c1` [Cpd 395, 2-{2-[2-(2,5-difluoro-phenyl)-ethyl]-1H-benzimidazol-5-yl}-benzenesulfonamide], the pIC50 is 7.82 and the inhibition at 1 µM turned out to be 99%.
The like results for `NS(=O)(=O)c1ccccc1-c1ccc2[nH]c(CCc3cc(F)cc(F)c3)nc2c1` [Cpd 396, 2-{2-[2-(3,5-difluoro-phenyl)-ethyl]-1H-benzimidazol-5-yl}-benzenesulfonamide] were, in that order, 7.89 and 99%.
In the case of `NS(=O)(=O)c1ccccc1-c1ccc2[nH]c(CCc3ccccc3)nc2c1` [Cpd 397, 2-(2-phenethyl-1H-benzimidazol-5-yl)-benzenesulfonamide], the pIC50 was 7.64 and the inhibition at 1 µM amounted to 99%.
Regarding `CN(C)S(=O)(=O)c1ccccc1-c1ccc2[nH]c(/C=C/c3ccc(C(F)(F)F)cc3)nc2c1` [Cpd 398, (E)-N,N-dimethyl-2-{2-[2-(4-trifluoromethyl-phenyl)-vinyl]-1H-benzimidazol-5-yl}-benzenesulfonamide], the pIC50 was 8.52 and the inhibition at 1 µM was determined as 97%.
With `CN(C)S(=O)(=O)c1ccccc1-c1ccc2[nH]c(CCc3ccc(C(F)(F)F)cc3)nc2c1` [Cpd 399, N,N-dimethyl-2-{2-[2-(4-trifluoromethyl-phenyl)-ethyl]-1H-benzimidazol-5-yl}-benzenesulfonamide], the negative logarithm of the IC50 (pIC50) is 8.52 and the inhibition at 1 µM worked out at 97%.
`NS(=O)(=O)c1ccccc1-c1ccc2[nH]c(CCc3ccccc3Cl)nc2c1` [Cpd 402, 2-{2-[2-(2-chloro-phenyl)-ethyl]-1H-benzimidazol-5-yl}-benzenesulfonamide]: the pIC50 was 7.42 and the inhibition at 1 µM came out at 93%.
The like results for `NS(=O)(=O)c1ccccc1-c1ccc2[nH]c(CCc3ccc(F)cc3C(F)(F)F)nc2c1` [Cpd 404, 2-{2-[2-(4-fluoro-2-trifluoromethyl-phenyl)-ethyl]-1H-benzimidazol-5-yl}-benzenesulfonamide] were, in that order, 7.33 and 94%.
Take `NS(=O)(=O)c1ccccc1-c1ccc2[nH]c(CCc3cccc(C(F)(F)F)c3F)nc2c1` [Cpd 405, 2-{2-[2-(2-fluoro-3-trifluoromethyl-phenyl)-ethyl]-1H-benzimidazol-5-yl}-benzenesulfonamide]: the pIC50 was 7.70 and the inhibition at 1 µM came to 95%.
As for `CS(=O)(=O)Nc1ccccc1-c1ccc2[nH]c(/C=C/c3ccc(Br)cc3)nc2c1` [Cpd 406, (E)-N-(2-{2-[2-(4-bromo-phenyl)-vinyl]-1H-benzimidazol-5-yl}-phenyl)-methanesulfonamide], the pIC50 is 6.77 and the inhibition at 1 µM is 97%.
Regarding `CS(=O)(=O)Nc1ccccc1-c1ccc2[nH]c(/C=C/c3ccc(F)c(Cl)c3)nc2c1` [Cpd 408, (E)-N-(2-{2-[2-(3-chloro-4-fluoro-phenyl)-vinyl]-1H-benzimidazol-5-yl}-phenyl)-methanesulfonamide], the inhibition at 1 µM was 64%.
As to `CS(=O)(=O)Nc1ccccc1-c1ccc2[nH]c(/C=C/c3ccc(F)c(Br)c3)nc2c1` [Cpd 409, (E)-N-(2-{2-[2-(3-bromo-4-fluoro-phenyl)-vinyl]-1H-benzimidazol-5-yl}-phenyl)-methanesulfonamide], the inhibition at 1 µM came to 43%.
For `CS(=O)(=O)Nc1ccccc1-c1ccc2[nH]c(/C=C/c3ccc(OC(F)F)cc3)nc2c1` [Cpd 410, (E)-N-(2-{2-[2-(4-difluoromethoxy-phenyl)-vinyl]-1H-benzimidazol-5-yl}-phenyl)-methanesulfonamide], the pIC50 is 6.81 and the inhibition at 1 µM turned out to be 91%.
Turning to `CS(=O)(=O)Nc1ccccc1-c1ccc2[nH]c(/C=C/c3cc(F)cc(C(F)(F)F)c3)nc2c1` [Cpd 411, (E)-N-(2-{2-[2-(3-fluoro-5-trifluoromethyl-phenyl)-vinyl]-1H-benzimidazol-5-yl}-phenyl)-methanesulfonamide], the pIC50 was 6.46 and the inhibition at 1 µM stood at 85%.
The like results for `Cc1ccc(/C=C/c2nc3cc(-c4ccccc4NS(C)(=O)=O)ccc3[nH]2)cc1` [Cpd 412, (E)-N-{2-[2-(2-p-tolyl-vinyl)-1H-benzimidazol-5-yl]-phenyl}-methanesulfonamide] were, in that order, 6.72 and 86%.
In the case of `CN(C)c1ccc(/C=C/c2nc3cc(-c4ccccc4NS(C)(=O)=O)ccc3[nH]2)cc1` [Cpd 413, (E)-N-(2-{2-[2-(4-dimethylamino-phenyl)-vinyl]-1H-benzimidazol-5-yl}-phenyl)-methanesulfonamide], the pIC50 was 6.62 and the inhibition at 1 µM is 82%.
Regarding `CCOc1ccc(/C=C/c2nc3cc(-c4ccccc4NS(C)(=O)=O)ccc3[nH]2)cc1` [Cpd 414, (E)-N-(2-{2-[2-(4-ethoxy-phenyl)-vinyl]-1H-benzimidazol-5-yl}-phenyl)-methanesulfonamide], the pIC50 is 6.85 and the inhibition at 1 µM was 98%.
As to `CS(=O)(=O)Nc1ccccc1-c1ccc2[nH]c(/C=C/c3ccc4ccccc4c3)nc2c1` [Cpd 415, (E)-N-{2-[2-(2-naphthalen-2-yl-vinyl)-1H-benzimidazol-5-yl]-phenyl}-methanesulfonamide], the pIC50 is 6.82 and the inhibition at 1 µM worked out at 95%.
For the compound `CS(=O)(=O)Nc1ccccc1-c1ccc2[nH]c(/C=C/c3ccc(Cl)c(Cl)c3)nc2c1` [Cpd 416, (E)-N-(2-{2-[2-(3,4-dichloro-phenyl)-vinyl]-1H-benzimidazol-5-yl}-phenyl)-methanesulfonamide], the pIC50 was 6.92 and the inhibition at 1 µM came to 96%.
Regarding `CS(=O)(=O)Nc1ccccc1-c1ccc2[nH]c(/C=C/c3ccc(C(F)(F)F)c(F)c3)nc2c1` [Cpd 417, (E)-N-(2-{2-[2-(3-fluoro-4-trifluoromethyl-phenyl)-vinyl]-1H-benzimidazol-5-yl}-phenyl)-methanesulfonamide], the pIC50 was 7.96 and the inhibition at 1 µM stood at 100%.
The like results for `CS(=O)(=O)Nc1ccccc1-c1ccc2[nH]c(/C=C/c3ccc(C(F)(F)F)cc3F)nc2c1` [Cpd 418, (E)-N-(2-{2-[2-(2-fluoro-4-trifluoromethyl-phenyl)-vinyl]-1H-benzimidazol-5-yl}-phenyl)-methanesulfonamide] were, in that order, 7.74 and 100%.
